Test results taken from ChEMBL document CHEMBL1759939, “Novel analogues of ketamine and phencyclidine as NMDA receptor antagonists” (Bioorg Med Chem Lett, 2011).
pIC50: −log10 of the molar value.

Columns and labels:
[1] = target: Glutamate NMDA receptor; GRIN1/GRIN2B (Homo sapiens, UniProt Q05586+Q13224); experiment: Inhibition of human recombinant NR1/NR2B receptor expressed in U2OS assessed as change in intracellular calcium level by FLIPR assay; type: cell-based; design: concentration or dose not given beside the values
[2] = target: Glutamate NMDA receptor; GRIN1/GRIN2A (Homo sapiens, UniProt Q05586+Q12879); experiment: Inhibition of human recombinant NR1/NR2A receptor expressed in U2OS assessed as change in intracellular calcium level by FLIPR assay; type: cell-based; design: concentration or dose not given beside the values

SMILES	Activity [1] [%]	pIC50 [1]	Activity [2] [%]	pIC50 [2]
CCCCOc1cccc(C2(N3CCCCC3)CCCCC2)c1	94	4.70	94	5.70
CNC1(c2ccccc2Cl)CCCN(C)C1=O (stereo not given)	80	< 3.60	80	< 3.60
CN1CCCC(c2ccccc2)(N2CCCCC2)C1=O (stereo not given)	80	< 3.60	80	5.50
CN1CCC(c2ccccc2)(N2CCCCC2)C1=O (stereo not given)	80	3.60	80	4.30
CNC1(c2ccc(OC)cc2Cl)CCCCC1=O (stereo not given)	80	4.70	80	5.00
CNC1(c2ccccc2Cl)CCCCC1=O (stereo not given) [KETAMINE]	> 100	5.30	> 100	5.90
c1ccc(C2(N3CCCCC3)CCCCC2)cc1 [PHENCYCLIDINE]	> 100	5.90	> 100	6.40
O=C1NCCCC1(c1ccccc1)N1CCCCC1 (stereo not given)	80	3.80	80	4.60
FC(F)(F)COc1cccc(C2(N3CCCCC3)CCCCC2)c1	94	4.50	94	5.30
c1ccc(C2(N3CCCCC3)CCCCC2)nc1	94	5.10	94	5.60
COc1ccc(C2(N3CCCCC3)CCCCC2)cc1	94	4.80	94	5.40
NC1(c2ccccc2Cl)CCCNC1=O (stereo not given)	80	< 4.30	80	< 4.30
CCCCOc1ccc(C2(N3CCCCC3)CCCCC2)cc1	94	< 4.30	94	< 4.30
CNC1(c2ccccc2Cl)CCCNC1=O (stereo not given)	80	< 3.60	80	4.40
O=C1NCCC1(c1ccccc1)N1CCCCC1 (stereo not given)	80	4.20	80	4.60
